The values that follow come from patent US20180235993A1 (priority 2000, published 2018).

Data set [1] deals with HepG2 cells. Nature of the data set: Mitochondria toxicity assay (L-lactic acid assay). The class given is cell-based. The conditions noted are these: Conc. 10 μM, 4 day drug exposure. The procedure:
HepG2 cells were cultured in 12-well plates as described above and exposed to various concentrations of drugs as taught by Pan-Zhou X-R, Cui L, Zhou X-J, Sommadossi J-P, Darley-Usmer V M. “Differential effects of antiretroviral nucleoside analogs on mitochondrial function in HepG2 cells” Antimicrob Agents Chemother 2000; 44:496-503. Lactic acid levels in the culture medium after 4 day drug exposure was measured using a Boehringer lactic acid assay kit. Lactic acid levels were normalized by cell number as measured by hemocytometer count.

For another data set, the system named is Human Hepatoma. Nature of the data set: Cytotoxicity assay (sulforhodamine B, CC50), Human Hepatoma. The conditions noted are these: 4 days incubation. The class given is cell-based. The procedure: (§1) Cells were seeded at a rate of between 5×10^3 and 5×10^4/well into 96-well plates in growth medium overnight at 37° C. in a humidified CO2 (5%) atmosphere. New growth medium containing serial dilutions of the drugs was then added. After incubation for 4 days, cultures were fixed in 50% TCA and stained with sulforhodamineB. The optical density was read at 550 nm. The cytotoxic concentration was expressed as the concentration required to reduce the cell number by 50% (CC50).

The test system of another data set is MDBK. In words: Cytotoxicity assay (sulforhodamine B, CC50), MDBK. The class given is cell-based. The conditions noted are these: MDBK cells, 4 days incubation. How it is done:
as §1

Data set [2] has as its system HepG2 cells. In words: Phosphorylation assay of nucleoside to active triphosphate. The class given is in vitro ADME. The settings on record: 10 μM [3H] labeled compound. How it is done:
To determine the cellular metabolism of the compounds, HepG2 cells were obtained from the American Type Culture Collection (Rockville, Md.), and were grown in 225 cm^2 tissue culture flasks in minimal essential medium supplemented with non-essential amino acids, 1% penicillin-streptomycin. The medium was renewed every three days, and the cells were subcultured once a week. After detachment of the adherent monolayer with a 10 minute exposure to 30 mL of trypsin-EDTA and three consecutive washes with medium, confluent HepG2 cells were seeded at a density of 2.5×10^6 cells per well in a 6-well plate and exposed to 10 μM of [^3H] labeled active compound (500 dpm/pmol) for the specified time periods. The cells were maintained at 37° C. under a 5% CO2 atmosphere. At the selected time points, the cells were washed three times with ice-cold phosphate-buffered saline (PBS). Intracellular active compound and its respective metabolites were extracted by incubating the cell pellet overnight at −20° C. with 60% methanol followed by extraction with an additional 20 μL of cold methanol for one hour in an ice bath. The extracts were then combined, dried under gentle filtered air flow and stored at −20° C. until HPLC analysis.

A further data set deals with BVDV (strain NADL). In words: Cell Protection Assay (CPA). The class given is cell-based, Bovine Viral Diarrhea virus. The procedure: The assay was performed essentially as described by Baginski, S. G.; Pevear, D. C.; Seipel, M.; Sun, S. C. C.; Benetatos, C. A.; Chunduru, S. K.; Rice, C. M. and M. S. Collett “Mechanism of action of a pestivirus antiviral compound” PNAS USA 2000, 97(14), 7981-7986. MDBK cells (ATCC) were seeded onto 96-well culture plates (4,000 cells per well) 24 hours before use. After infection with BVDV (strain NADL, ATCC) at a multiplicity of infection (MOI) of 0.02 plaque forming units (PFU) per cell, serial dilutions of test compounds were added to both infected and uninfected cells in a final concentration of 0.5% DMSO in growth medium. Each dilution was tested in quadruplicate. Cell densities and virus inocula were adjusted to ensure continuous cell growth throughout the experiment and to achieve more than 90% virus-induced cell destruction in the untreated controls after four days post-infection. After four days, plates were fixed with 50% TCA and stained with sulforhodamine B. The optical density of the wells was read in a microplate reader at 550 nm. The 50% effective concentration (EC50) values were defined as the compound concentration that achieved 50% reduction of cytopathic effect of the virus. FIGS. 4 and 5 provide a graphical illustration of the methodology used to arrive at the 50% effective concentration (EC50) values for β-D-2′-CH3-riboG and ribavirin. FIG. 6 compares the results of the CPA for β-D-2′-CH3-riboG, β-D-2′-CH3-riboC, riboU, β-D-2′-CH3-riboA and ribavirin

The test system of another data set is BVDV. In words: Plaque Reduction Assay. The class given is cell-based, Bovine Viral Diarrhea virus. The procedure:
For each compound the effective concentration was determined in duplicate 24-well plates by plaque reduction assays. Cell monolayers were infected with 100 PFU/well of virus. Then, serial dilutions of test compounds in MEM supplemented with 2% inactivated serum and 0.75% of methyl cellulose were added to the monolayers. Cultures were further incubated at 37° C. for 3 days, then fixed with 50% ethanol and 0.8% Crystal Violet, washed and air-dried. FIG. 7 is a graphical illustration of the results from the Plaque Reduction Assay. FIG. 8 is an image of BVDV plaque formation in the presence of increasing concentrations of β-D-2′-CH3-riboU.

Data set [3] relates to Human bone marrow cells (CFU-GM). Nature of the data set: Human bone marrow toxicity, CFU-GM clonogenic assay. The class given is cell-based. The conditions noted are these: human bone marrow colony formation, 14 to 18 days; read-out: IC50 CFU-GM. From the text: (§2) Human bone marrow cells were collected from normal healthy volunteers and the mononuclear population was separated by Ficoll-Hypaque gradient centrifugation as described previously by Sommadossi J-P, Carlisle R. “Toxicity of 3′-azido-3′-deoxythymidine and 9-(1,3-dihydroxy-2-propoxymethyl)guanine for normal human hematopoietic progenitor cells in vitro” Antimicrobial Agents and Chemotherapy 1987; 31:452-454; and Sommadossi J-P, Schinazi R F, Chu C K, Xie M-Y. “Comparison of cytotoxicity of the (−)- and (+)-enantiomer of 2′,3′-dideoxy-3′-thiacytidine in normal human bone marrow progenitor cells” Biochemical Pharmacology 1992; 44:1921-1925. The culture assays for CFU-GM and BFU-E were performed using a bilayer soft agar or methylcellulose method. Drugs were diluted in tissue culture medium and filtered. After 14 to 18 days at 37° C. in a humidified atmosphere of 5% CO2 in air, colonies of greater than 50 cells were counted using an inverted microscope. The results in Table 4 are presented as the percent inhibition of colony formation in the presence of drug compared to solvent control cultures.

In a further data set the test system is BVDV (NADL strain). Nature of the data set: Yield Reduction Assay. The class given is cell-based, Bovine Viral Diarrhea virus. How it is done: The assay was performed as described by Baginski, S. G.; Pevear, D. C.; Seipel, M.; Sun, S. C. C.; Benetatos, C. A.; Chunduru, S. K.; Rice, C. M. and M. S. Collett “Mechanism of action of a pestivirus antiviral compound” PNAS USA 2000, 97(14), 7981-7986, with minor modifications. Briefly, MDBK cells were seeded onto 24-well plates (2×10^5 cells per well) 24 hours before infection with BVDV (NADL strain) at a multiplicity of infection (MOI) of 0.1 PFU per cell. Serial dilutions of test compounds were added to cells in a final concentration of 0.5% DMSO in growth medium. Each dilution was tested in triplicate. After three days, cell cultures (cell monolayers and supernatants) were lysed by three freeze-thaw cycles, and virus yield was quantified by plaque assay. Briefly, MDBK cells were seeded onto 6-well plates (5×10^5 cells per well) 24 h before use. Cells were inoculated with 0.2 mL of test lysates for 1 hour, washed and overlaid with 0.5% agarose in growth medium. After 3 days, cell monolayers were fixed with 3.5% formaldehyde and stained with 1% crystal violet (w/v in 50% ethanol) to visualize plaques. FIG. 9 is a graphical illustration of the results from the Yield Reduction Assay. FIG. 8 is an image of BVDV yield reduction in the presence of increasing concentrations of β-D-2′-CH3-riboC.

In the next data set the test system is YFV-17D. In words: microbe, parasite or virus in culture. The class given is cell-based, Yellow fever virus vaccine strain 17D. The settings on record: Table 12; reduce the plaque number by 50%; YFV-BHK; read-out: YFV EC50.
Data set [4] relates to Human bone marrow cells (BFU-E). Nature of the data set: Human bone marrow toxicity, BFU-E clonogenic assay. The conditions noted are these: human bone marrow colony formation, 14 to 18 days. It counts as cell-based.
From the text: as §2

The test system of data set [5] is Bovine Viral Diarrhea virus (BVDV). In words: microbe, parasite or virus in culture. The settings on record: read-out: BVDV EC50. It counts as cell-based.
Setting [6] is: HepG2 cells, read-out: CC50 HepG2.
Where [7] appears, read: Huh7 cells, read-out: CC50 Huh7.
Where [8] appears, read: read-out: Cell Protection (EC50).

The structures appear in SMILES notation. Read-outs that look alike come from different tables or passages of the source.

For `O=c1[nH]c(=O)n([C@@H]2O[C@H](CO)[C@@H](O)[C@@H]2F)cc1I` [FIAU, reference compound], in the data set with HepG2 cells [1], the lactate is recorded as 3.73 mg/10^6 cell and the “lactate % of Control” value stood at 170.4%.
`CC1(O)[C@@H](O)[C@@H](CO)O[C@H]1n1cnc2c(N)ncnc21` (stereo partly drawn) [β-D-2'-CH3-riboA]: the figures for the CC50 in the data set with Human Hepatoma (setting [6]), with Human Hepatoma (setting [7]) and in the data set on MDBK were 50 to 60 µM, 40 µM and 20 µM, respectively.
The like results for `C[C@@]1(O)[C@H](O)[C@@H](CO)O[C@H]1n1ccc(N)nc1=O` [β-D-2'-CH3-riboC] were, in that order, 150 µM, more than 250 µM and 100 µM.
Regarding `CC1(O)[C@@H](O)[C@@H](CO)O[C@H]1n1cnc2c(=O)[nH]c(N)nc21` (stereo partly drawn) [β-D-2'-CH3-riboG], the values for the CC50 with Human Hepatoma (setting [6]), with Human Hepatoma (setting [7]) and in the data set with MDBK were more than 250 µM, more than 250 µM and 100 µM, respectively.
With `C[C@@]1(O)[C@H](O)[C@@H](CO)O[C@H]1n1ccc(=O)[nH]c1=O` [β-D-2'-CH3-riboU], the CC50 with Human Hepatoma (setting [6]), with Human Hepatoma (setting [7]) and with MDBK was more than 250 µM in each case.
`C[C@@]1(O)[C@H](O)[C@@H](COP(=O)(O)OP(=O)(O)OP(=O)(O)O)O[C@H]1n1cnc2c(N)ncnc21` [β-D-2′-CH3-riboA-TP]: the intracellular triphosphate level in the data set on HepG2 cells [2] (2 h) is 33.1 pmol/million cells; in the data set with HepG2 cells [2] (4 h), 67.7 pmol/million cells; in the data set with HepG2 cells [2] (8 h), 147 pmol/million cells; in the data set with HepG2 cells [2] (24 h) it was 427 pmol/million cells; in the data set on HepG2 cells [2] (30 h), 456 pmol/million cells; in the data set with HepG2 cells [2] (48 h), 288 pmol/million cells.
Turning to `C[C@@]1(O)[C@H](O)[C@@H](COP(=O)(O)OP(=O)(O)OP(=O)(O)O)O[C@H]1n1ccc(N)nc1=O` [β-D-2′-CH3-riboC-TP], the intracellular triphosphate level came to 2.24 pmol/million cells in the data set with HepG2 cells [2] (2 h); 3.99 pmol/million cells in the data set on HepG2 cells [2] (4 h); 9.76 pmol/million cells in the data set on HepG2 cells [2] (8 h); 34.9 pmol/million cells with HepG2 cells [2] (24 h); 36.2 pmol/million cells in the data set with HepG2 cells [2] (30 h); 56.4 pmol/million cells in the data set with HepG2 cells [2] (48 h).
Consider `C[C@@]1(O)[C@H](O)[C@@H](COP(=O)(O)OP(=O)(O)OP(=O)(O)O)O[C@H]1n1cnc2c(=O)[nH]c(N)nc21` [β-D-2′-CH3-riboG-TP], for which the intracellular triphosphate level in the data set on HepG2 cells [2] (8 h) was found to be 2.85 pmol/million cells; in the data set on HepG2 cells [2] (24 h), 0.91 pmol/million cells; with HepG2 cells [2] (30 h) it was 3.22 pmol/million cells; in the data set on HepG2 cells [2] (48 h), 6.26 pmol/million cells.
On to `C[C@@]1(O)[C@H](O)[C@@H](CO)O[C@H]1n1cnc2c(=O)[nH]cnc21` [β-D-2′-CH3-riboI], for which, in the data set with BVDV (strain NADL) (setting [8]), the EC50 was 45 µM.
In the case of `Cc1cn([C@@H]2O[C@H](CO)[C@@H](O)[C@@]2(C)O)c(=O)[nH]c1=O` [β-D-2′-CH3-riboT], the EC50 in the data set on BVDV (strain NADL) (setting [8]) is more than 250 µM.
Regarding `C[C@@]1(O)[C@H](O)[C@@H](COP(=O)(O)OP(=O)(O)OP(=O)(O)O)O[C@H]1n1ccc(=O)[nH]c1=O` [β-D-2′-CH3-riboU-TP], the intracellular triphosphate level in the data set with HepG2 cells [2] (2 h) was found to be 0.40 pmol/million cells; in the data set with HepG2 cells [2] (4 h), 1.21 pmol/million cells; with HepG2 cells [2] (8 h), 1.57 pmol/million cells; with HepG2 cells [2] (24 h), 6.39 pmol/million cells; in the data set with HepG2 cells [2] (30 h), 7.18 pmol/million cells; with HepG2 cells [2] (48 h) it was 9.42 pmol/million cells.
`C[C@@]1(O)[C@H](O)[C@@H](CO)O[C@H]1n1ccc(=O)[nH]c1=O` [β-D-2′-CH3-riboU]: the EC90 in the data set on BVDV (read-out: EC90) was less than 81 µM; with BVDV (read-out: Plaque Reduction (EC90)) it was less than 81 µM; with BVDV (NADL strain), 24 µM. For the same compound, the half-maximal cytotoxic concentration (CC50) with MDBK cells is more than 250 µM; in the data set with various cell systems, more than 100 µM; with various cell systems (read-out: YFV CC50, Table 12, reduce the viability of cells by 50%, YFV-BHK system), more than 100 µM. Further, the IC50 in [3] and in data set [4] was more than 100 µM in each case. Moreover, in the data set with BVDV (NADL strain), the “Conc. for 6-log Reduction” value worked out at 120 μM. In the data set with BVDV (NADL strain), the “Yield Reduction 6 log10 reduction (μM)” value is recorded as 120 μM. For the same compound, the EC50 in the data set with YFV-17D was determined as 33 µM; in the data set on BVDV (strain NADL) (setting [8]), 20 µM; in the data set with BVDV (strain NADL) (read-out: EC50), 20 µM; in data set [5] it was 20 µM.

In general, CC50 refers to the concentration that lowers cell viability or growth by half. As a reminder, the EC50 is the concentration at which the effect is half-maximal. What is called EC90 is the concentration needed for an effect of 90%. As usually defined, the IC50 is the concentration that gives 50% inhibition.
